This note sets out measurements from patent US20120309734A1, “COMBRETASTATIN DERIVATIVES AND USES THEREFOR” (priority 2009, published 2012).

The subject of one data set is PC-3. Description: NCI60 cell line screen. As to conditions: Homo sapiens.
The next data set deals with HUVECs. In words: VEGF-stimulated transwell migration assay. As to conditions: Homo sapiens, HUVEC; 50 nM, 6 h, 10 ng/ml VEGF. Type of data set: cell-based. Here is the method: This modified transwell migration assay consisted of an upper and a lower chamber separated by a membrane. Migration of HUVECs from the upper to the lower chamber was stimulated by addition of VEGF to the lower chamber. The effect of compound 4 on this migration was determined by its addition along with VEGF into the lower chamber. Migration was expressed as a percentage of migration in control chambers treated with the vehicle (100%). HUVECs 10,000 cells in […] medium were seeded onto fibronectin-coated […] transwell inserts in 24-well plates containing medium. HUVEC migration was stimulated by the addition of 10 ng/ml VEGF to the lower wells. Vehicle (0.5% (v/v) ethanol) or compound 4 (50 nM) were also added to the lower wells. After 6 h, the upper surfaces of the inserts were swabbed to remove non-migrated cells. Filters containing the migrated cells were stained with 0.5% toulidine blue 0 and 0.5% sodium tetraborate. The cells were solubilised in 0.2% (w/v) SDS in 20 mM Tris-HCl, pH 7.7 and staining quantified as absorbance at 650 nm. […] P-values were determined using a two-tailed Student's paired t-test. A value of P<0.05 was considered to be significant.

Another data set has as its system HOP-92. In words: NCI60 cell line screen. As to conditions: Homo sapiens.
The next data set has as its system HL-60-MDR(PGP). In words: Alamar Blue cell viability assay. Format: cell-based, human. (In general: Resazurin is reduced to fluorescent resorufin, in cell work by metabolically active cells.)
Another data set has as its system SF-268. Description: NCI60 cell line screen. As to conditions: Homo sapiens.
Another data set concerns NCI-H460. In words: NCI60 cell line screen. As to conditions: Homo sapiens.
A further data set concerns NCI/ADR-RES. In words: NCI60 cell line screen. As to conditions: Homo sapiens.
A further data set concerns SK-MEL-2. In words: NCI60 cell line screen. As to conditions: Homo sapiens.
The subject of data set [1] is primary CML cells (BCR-ABL-positive). Description: Apoptosis in ex vivo CML cells, annexin V staining. Format: cell-based, human. As to conditions: 72 h. The source says: This study is the first pre-clinical evaluation of combretastatins in the treatment of chemotherapy naive and patients with acquired imatinib mesylate resistance (refractory or relapsed disease despite adequate dose and duration). Imatinib mesylate is the first line treatment in BCR-ABL-positive CML chemotherapy. BCR-ABL, a constitutively active protein tyrosine kinase is a product of the Philadelphia chromosome (Ph) translocation t(9;22) and plays a central role in the pathogenesis of CML. […] All cells were treated with a clinically achievable concentration of imatinib mesylate (indicated as STI in FIG. 3) [250 nM]. […] The percentage apoptosis was determined by flow cytometric analysis of annexin-V stained cells.
The percentage of apoptosis in ex-vivo CML cells was determined by annexin V staining. […] Cells were collected by centrifugation at 400×g for 5 min and resuspended in anti-CD-45 diluted 1:50 in RPMI medium. Following a 10 min incubation in the dark at room temperature, cells were centrifuged and washed in Annexin binding buffer (Biosource, Nivelles, Belgium). Cells were again centrifuged and resuspended in Annexin-V-FITC (IQ products, Netherlands) diluted in Annexin binding buffer (1:50). Samples were next incubated in the dark on ice for 15 min. Annexin binding buffer (1 ml) was added to each sample. Samples were collected by centrifugation and resuspended in 0.5 ml of Annexin binding buffer. Cells were read immediately by flow cytometry and analysed by Cellquest software. CML cells were selected and gated based on their low to medium side scatter and low CD45 expression.

A further data set relates to OVCAR-4. In words: NCI60 cell line screen. As to conditions: Homo sapiens.
The subject of another data set is MDA-MB-435. Description: NCI60 cell line screen. As to conditions: Homo sapiens.
Another data set concerns K-562. In words: NCI60 cell line screen. As to conditions: Homo sapiens, K562.
The test system of a further data set is NCI-H23. In words: NCI60 cell line screen. As to conditions: Homo sapiens.
Another data set relates to TK-10. Description: NCI60 cell line screen. As to conditions: Homo sapiens.
The next data set has as its system HCT-2998. In words: NCI60 cell line screen.
In the next data set the test system is UO-31. In words: NCI60 cell line screen. As to conditions: Homo sapiens.
The next data set relates to MCF-7. Description: NCI60 cell line screen. As to conditions: Homo sapiens, MCF7.
The test system of another data set is UACC-257. Description: NCI60 cell line screen. As to conditions: Homo sapiens.
Another data set has as its system SK-MEL-5. In words: NCI60 cell line screen. As to conditions: Homo sapiens.
Data set [2] in a line: Stability by HPLC at three pH values. As to conditions: for half-life: all pH values (4, 7.4, 9), HPLC; for stability at varying pH: pH 4, 7.4, 9, HPLC. Type of data set: physicochemical. Here is the method:
The stability of β-lactam compounds 4, 8 and 12 was assessed by HPLC at three different pH values. […] The half-lives of 8 and 12 were both greater than 24 hours at all pH values. The stability of three ester prodrug derivatives of 4, i.e. 29, 30 and 31, was also assessed (FIG. 6).

Another data set relates to HOP-62. In words: NCI60 cell line screen. As to conditions: Homo sapiens.

Protocol for HL-60-MDR(PGP): Three drug resistant cell lines and respective parental cell lines were assessed. […] Western blot analysis confirmed the overexpression of p-glycoprotein and BCRP in respective cell lines.
Cells were exposed to multiple concentrations of the indicated compound for 72 h. Cell viability was assessed using the Alamar blue assay and respective IC50 values were calculated. The resistance factor (RF) was calculated by dividing the IC50 of the resistant cell line/IC50 of the parental cell line.
All cells were cultured in RPMI-1640 Glutamax medium supplemented with 10% FCS media, 100 units/ml penicillin and 100 μg/mIstreptomycin. Cells were maintained at 37° C. in 5% CO2 in a humidified incubator.
The reduction of Alamar Blue is proportional to the number of viable cells. Cells (200 μl) were plated in triplicate in a 96-well plates (K562, 100,000/ml; HL-60, 300,000/ml; A-2780 50,000/ml). A-2780 cells were plated 24 h prior to treatment. Suspension cells were plated in the log phase of growth and treated immediately. The cells were then treated with either medium alone, vehicle (1% ethanol v/v or 0.1% DMSO v/v) or with a range of concentrations of drug [0.001-10 μM]. After 72 h, Alamar Blue was added to each well (10% of final volume) and fluorescence was read using a 96-well fluorometer with excitation at 530 nm and emission of 590 nm. The blank solution consisted of medium and Alamar Blue and the blank solution was used to calibrate the spectrophotometer to zero absorbance. The relative cell viability (%) related to control wells and was calculated by [A]test/[A]control×100 where [A]test is the absorbance of the drug treated cells and [A]control the absorbance of the vehicle control treated cells. Dose response curves were plotted and IC50 values (concentration of drug resulting in 50% reduction in cell survival) were obtained using the commercial software package Prism (GraphPad Software, Inc., La Jolla, USA). Experiments were performed in triplicate on at least three separate occasions.

The GI50 is the concentration that inhibits growth by half. A higher GI50 goes with less potent growth inhibition. One may read the inhibition as the share of the control response that was lost under treatment. As usually defined, the IC50 is the point on the concentration scale where inhibition reaches its midpoint. With `COc1ccc(C2C(c3ccccc3)C(=O)N2c2cc(OC)c(OC)c(OC)c2)cc1O` (stereo not drawn) [Compound 4, 4-(3-Hydroxy-4-methoxyphenyl)-3-phenyl-1-(3,4,5-trimethoxyphenyl)-azetidin-2-one], the GI50 in the data set with PC-3 was below 10 nM; in the data set with HOP-92, 5150 nM; in the data set with SF-268, below 10 nM; in the data set on NCI-H460 it was below 10 nM; in the data set with NCI/ADR-RES, below 10 nM; in the data set on SK-MEL-2 it was 14 nM. The GI50 in the data set with OVCAR-4 is 18 nM; with MDA-MB-435, below 10 nM; in the data set with K-562, below 10 nM; in the data set on NCI-H23 it was below 10 nM; in the data set with TK-10 it was below 10 nM; in the data set with HCT-2998, 35 nM. Also, the GI50 in the data set on UO-31 was 32 nM; in the data set with MCF-7 it was below 10 nM; with UACC-257, 22400 nM; in the data set with SK-MEL-5, below 10 nM. This compound also returned an inhibition at 0.05 µM with HUVECs of 74%. For the same compound, the IC50 with HL-60-MDR(PGP) (Homo sapiens, HL60/MDR, HL-60-MDR(PGP), 72 h, Alamar blue, read-out: IC50) came out at 18.2 nM. The RF with HL-60-MDR(PGP) (IC50 HL-60-MDR(PGP) / IC50 HL-60 parental) is 1.03. Also, in data set [1] (250 nM each, patient samples), the “apoptosis induction compared with imatinib mesylate” value is on record as “more effective inducers of apoptosis than imatinib mesylate”. In addition, the “apoptosis in primary CML cells” value in [1] (250 nM, chemotherapy naïve (4 samples) and imatinib mesylate resistant (2 samples)) was “induced apoptosis”.
Broadly, the half-life is the time needed for the level to fall by half in the phase considered. High values mean slow loss, low ones fast loss. `COc1ccc(C2C(c3ccccc3)C(=O)N2c2cc(OC)c(OC)c(OC)c2)cc1` (stereo not drawn) [Compound 8, 4-(4-Methoxy-phenyl)-3-phenyl-1-(3,4,5-trimethoxy-phenyl)-azetidin-2-one]: the GI50 in the data set on HOP-92 was 22700 nM; with SF-268, 354 nM; in the data set on NCI-H460 it was 198 nM; in the data set on NCI/ADR-RES, 42.5 nM; with SK-MEL-2 it was above 100000 nM; in the data set with OVCAR-4 it was 82.5 nM. Moreover, the GI50 in the data set with MDA-MB-435 came to 23.9 nM; in the data set on K-562 it was 29.1 nM; with NCI-H23, 427 nM; with TK-10 it was 6780 nM; in the data set on HCT-2998 it was 349 nM; in the data set with UO-31, 396 nM. Also, the GI50 with MCF-7 amounted to 35.1 nM; in the data set with UACC-257, 27900 nM; in the data set on HOP-62, 605 nM; with SK-MEL-5, 124 nM. Moreover, the half-life in data set [2] is above 24 h. In data set [2], the “stability at varying pH” value is “least stable at acidic pH 4 and relatively stable at pH's 7.4 and 9”.
Regarding `COc1ccc(C2C(c3cccs3)C(=O)N2c2cc(OC)c(OC)c(OC)c2)cc1` (stereo not drawn) [Compound 12, 4-(4-Methoxyphenyl)-3-thiophen-2-yl-1-(3,4,5-trimethoxyphenyl)-azetidin-2-one], the GI50 in the data set on PC-3 was below 10 nM; in the data set with HOP-92, 51 nM; in the data set on SF-268, 28 nM; in the data set with NCI-H460 it was 30 nM; in the data set on NCI/ADR-RES, below 10 nM; with SK-MEL-2, 7790 nM. The GI50 in the data set on OVCAR-4 is 13 nM; with MDA-MB-435, below 10 nM; with NCI-H23, 36 nM; in the data set with TK-10 it was below 10 nM; with HCT-2998, 30 nM; with UO-31, 38 nM. The GI50 is below 10 nM in the data set with MCF-7, 67800 nM in the data set with UACC-257, 70 nM in the data set on HOP-62 and 14 nM in the data set on SK-MEL-5. The same compound yielded a half-life in data set [2] above 24 h. The “stability at varying pH” value in data set [2] is “least stable at acidic pH 4 and relatively stable at pH's 7.4 and 9”.
